Reference: ChEMBL document CHEMBL1158634, “Towards Gram-positive antivirulence drugs: new inhibitors of Streptococcus agalactiae Stk1” (Bioorg Med Chem Lett, 2010)

Experiment: Inhibition of Streptococcus agalactiae Stk1 preincubated for 30 mins

Row | Structure (SMILES) | IC50 [µM]
1 | Cn1cnc2c(NCCCO)nc(-c3cccc(-c4ccccc4)c3)nc21 | 4
2 | Cn1cnc2c(NCCCO)nc(-c3cccc(NC(=O)Nc4cccc(Cl)c4)c3)nc21 | 0.32
3 | Cn1cnc2c(NCCCO)nc(-c3cccc(NS(C)(=O)=O)c3)nc21 | 15
4 | Cn1cnc2c(NCCCO)nc(Nc3ccccc3)nc21 | 26
5 | Cc1cccc(NC(=O)Nc2cccc(-c3nc(NCCCO)c4ncn(C)c4n3)c2)c1 | 0.2
6 | Cn1cnc2c(NCCCO)nc(-c3cccc(NC(=O)Nc4ccccc4)c3)nc21 | 1
7 | Cn1cnc2c(NCCCO)nc(-c3cccc(NC(=O)Nc4cccnc4)c3)nc21 | 0.96
8 | Cn1cnc2c(NCCCO)nc(-c3cccc(C(F)(F)F)c3)nc21 | 4
9 | Cn1cnc2c(NCCCO)nc(-c3cccc(NS(=O)(=O)Cc4ccccc4)c3)nc21 | 22
10 | CC(=O)Nc1cccc(NC(=O)Nc2cccc(-c3nc(NCCCO)c4ncn(C)c4n3)c2)c1 | 0.93
11 | CC(C)n1cnc2c(NCCCO)nc(Cl)nc21 | > 300
12 | Cn1cnc2c(NCCCO)nc(N3CCOCC3)nc21 | 66
13 | Cn1cnc2c(NCCCO)nc(-c3ccccc3)nc21 | 12
14 | Cn1cnc2c(NCCCO)nc(-c3cccc(NC(=O)NCc4ccccc4)c3)nc21 | 7.5
15 | Cn1cnc2c(NCCCO)nc(-c3cccc(NC(=O)Nc4ccc(Cl)cc4)c3)nc21 | 1.6
16 | Cn1cnc2c(NCCCO)nc(-c3cccc(NC(N)=O)c3)nc21 | 12
17 | Cn1cnc2c(NCCCO)nc(-c3cccc(C(=O)NCCc4cccnc4)c3)nc21 | 38
18 | Cn1cnc2c(NCCCO)nc(-c3cccc(N)c3)nc21 | 13
19 | CC(=O)Nc1cccc(-c2nc(NCCCO)c3ncn(C)c3n2)c1 | 18
20 | COc1ccc(NC(=O)Nc2cccc(-c3nc(NCCCO)c4ncn(C)c4n3)c2)cc1 | 0.63
21 | Cn1cnc2c(NCCCO)nc(-c3cccc(NC(=O)Nc4cccc(S(C)(=O)=O)c4)c3)nc21 | 0.64
22 | Cn1cnc2c(NCCCO)nc(-c3cccc(NC(=O)Nc4ccsc4)c3)nc21 | 2
23 | Cn1cnc2c(NCCCO)nc(NCc3ccccc3)nc21 | 48

Row | Structure (SMILES) | IC50 [µM]
24 | Cn1cnc2c(NCCCO)nc(-c3cccnc3)nc21 | 34
25 | Cn1cnc2c(NCCO)nc(-c3cccc(NC(=O)Nc4cccc(Cl)c4)c3)nc21 | 0.32
26 | CCCNC(=O)Nc1cccc(-c2nc(NCCCO)c3ncn(C)c3n2)c1 | 18
27 | Cn1cnc2c(N)nc(-c3cccc(NC(=O)Nc4cccc(Cl)c4)c3)nc21 | 1.3
28 | CN(CCCO)c1nc(-c2cccc(NC(=O)Nc3cccc(Cl)c3)c2)nc2c1ncn2C | > 300
29 | Cn1cnc2c(NCCCO)nc(-c3cccc(NC(=O)Nc4cccc(C#N)c4)c3)nc21 | 0.49
30 | Cn1cnc2c(NCCCO)nc(-c3cccc(NC(=O)Nc4ccccc4Cl)c3)nc21 | 16
31 | Cn1cnc2c(NCCCO)nc(-c3cccc([N+](=O)[O-])c3)nc21 | 3
32 | COCCCNc1nc(-c2cccc(NC(=O)Nc3cccc(Cl)c3)c2)nc2c1ncn2C | 0.28
33 | Cn1cnc2c(NCCCO)nc(-c3cccc(Cl)c3)nc21 | 3
34 | Cn1cnc2c(NCCCO)nc(Cl)nc21 | 66
35 | Cn1cnc2c(NCCCO)nc(-c3cccc(C(=O)N4CCC(c5ccccc5)CC4)c3)nc21 | 174
36 | OCCCNc1nc(Cl)nc2[nH]cnc12 | > 300
37 | Cn1cnc2c(NCCCO)nc(-c3cccc(NC(=O)Nc4cccc(N)c4)c3)nc21 | 0.73
38 | Cn1cnc2c(NCCCO)nc(-c3cccc(NC(=O)Nc4ccc5c(c4)OCO5)c3)nc21 | 0.28
39 | Cn1cnc2c(NCCCO)nc(-c3cccc(NC(=O)Nc4c(Cl)cccc4Cl)c3)nc21 | 59
40 | Cn1cnc2c(NCCCO)nc(N3CCNCC3)nc21 | 110
41 | Cn1cnc2c(NCCCN)nc(-c3cccc(NC(=O)Nc4cccc(Cl)c4)c3)nc21 | 0.48
42 | CCCNc1nc(-c2cccc(NC(=O)Nc3cccc(Cl)c3)c2)nc2c1ncn2C | 0.3
43 | Cn1cnc2c(NCCCO)nc(-c3cccc(NC(=O)Nc4cc(Cl)cc(Cl)c4)c3)nc21 | 0.16
44 | CCn1cnc2c(NCCCO)nc(Cl)nc21 | 175
45 | Cn1cnc2c(NCCCO)nc(-c3cccc(C(=O)O)c3)nc21 | 39
46 | Cn1cnc2c(NCCCO)nc(-c3cccc(C(=O)NCCCc4ccccc4)c3)nc21 | > 300
